Peptide text beside a SMILES is read from it.
Legend:
[1] = Post-operative body weight after injection into S/DB; assay type: in vivo, rat; details: 2 μl of 33 mM into S/DB, Wistar rats, weighed daily
Protocol: (§1) The experimental group (n=6 rats) received an injection of AChE peptide into the medial septum/vertical limb of the diagonal band (S/DB). Control rats (n=6 rats) received an equal amount of the vehicle, water, in the same way, while another group (n=5 rats) received an injection of the reference neurotoxin NMDA at an equivalent dose to that of AChE peptide (2 μl of 33 mM). Each injection was given slowly over 15 minutes through a 34 gauge stainless steel injection needle coupled by polyethylene tubing to a 10 μl Hamilton syringe. Co-ordinates used on the stereotaxic instrument (Kopf) were 0.7 mm anterior to bregma, 1.0 mm lateral to midline and 6.5 mm from skull surface at bregma. The incisor bar was set at −0.5 mm for all rats, resulting in approximately a level skull surface between the bregma and lambda sutures. The arm of the stereotaxic instrument was angled at 10 degrees to vertical to avoid damage to the sagittal sinus.
Post-operatively the rats were weighed every day. Approximately two weeks after operation they were again food restricted and tested for performance on the T-maze.

[2] = tested on: medial septum/vertical limb of the diagonal band (S/DB); experiment: Histology of septal region after injection into S/DB; assay type: in vivo, rat; details: for histological appearance of the septal area: 2 μl of 33 mM into S/DB, Example 2
Protocol: as §1
After a final weighing, rats were killed by stunning followed by decapitation. The hippocampus and cingulate/secondary motor cortex were rapidly removed and stored frozen at −80 degrees Celsius. The block of brain anterior to the hippocampus was placed in 30% sucrose formalin and left to fix for at least a week prior to sectioning on a microtome and staining with cresyl violet. Microscopical brain examination was subsequently performed as in earlier experiments.
Wistar rats were anaesthetised and injected as described in Example 2, with one of the following. AChE peptide, the equivalent peptide from BuChE, a scrambled version of the AChE peptide: HSWRAEVFHKYWSM, NMDA and water as a control. The number of rats in each group was between four and five.
Brain examination was performed as described in Example 2.

mice = experiment: Injection of AChE peptide into mice; assay type: in vivo
rat hippocampus = experiment: Direct injection into rat hippocampus, histological effects (length of hippocampal cell layers destroyed); assay type: in vivo; details: for extent of hippocampal damage: 68 mM in a volume of 1 μl into hippocampus
Protocol: AChE peptide was injected into rat hippocampus and subsequently the brains were examined under a light microscope. The hippocampus was-chosen as the most suitable brain structure in which to show effects of AChE peptide as it is very vulnerable to neurotoxins and damage from other causes such as ischaemia. Post mortem histological. examination or pre mortem brain scans reveal prominent decay of the hippocampus in Alzheimer brains.
Male Wistar or Dark Agouti (DA) rats were anaesthetised with Avertin and injected with 0.5 μl of 2 mM AChE peptide (DA rats received 1 μl of 1 mM) in the right hippocampus. An equivalent control injection was made in the left hippocampus. After recovery from the anaesthetic and a few days in their home cages rats were deeply anaesthetised and transcardially perfused with formalin preservative, the brains removed and prepared for microscopical examination. Sections of 50 μm were cut on a sliding microtome and stained with cresyl violet to show the nerve cells. The amount of neural damage was estimated by counting the length of hippocampal cell layers destroyed (quantified in terms of microscope graticule units).
A small number of injections were made into the hippocampus of DA rats with the reference neurotoxin NMDA (N-methyl D-aspartic acid) at an equivalent concentration to that of AChE peptide used above (1 μl of 1 mM).
(§2) Since the concentration of NMDA used to produce experimental neural destruction (as a tool in experimental psychology to examine the function of a particular brain region) is much higher (typically 68 mM) a small number of rats were injected with this larger amount, in a volume of 1 μl, in comparison with an equivalent amount of AChE peptide.

[3] = Body weight and condition after high-dose hippocampal injection; assay type: in vivo, rat; details: higher dose (68 mM, 1 μl) into hippocampus, one of two rats, 5 days after surgery
Protocol: as §2
One of the two rats given AChE peptide at this higher dose looked very sick 5 days after the surgery and was therefore deeply anaesthetised and the brain prepared for microscopy. […] The other rat survived 11 days until it was finally anaesthetised, but it too lost some weight. This supported informal observations from the earlier, low dose experiment that AChE peptide treated rats might lose more weight than is normal after such surgery.

[4] = tested on: medial septum/vertical limb of the diagonal band (S/DB); experiment: Locomotor activity cages after injection into S/DB; assay type: in vivo, rat; details: 2 μl of 33 mM into S/DB, two successive days
Protocol: as §1
After completion of T-maze testing rats were returned to a free feeding regimen before being tested on two successive days in standard locomotor activity cages. Each cage was equipped with two infrared beams to detect movement.

[5] = tested on: nucleus basalis of Meynert (NBM); experiment: Serial choice reaction task (attention) after injection into NBM; assay type: in vivo, rat; details: bilateral 2 μl of 16.5 mM into NBM, light stimulus 1.0 s
Protocol: Testing for loss of cognitive function reminiscent of loss of such function associated with Alzheimer's Disease in humans was carried out using a serial choice reaction task, a preferred form of task for testing for attentional deficits, as described by Higgs et al. (Higgs, S., Deacon, R. M. J. & Rawlins, J. N. P., European Journal of Neuroscience (2000)12, 1781-1788).
A rat testing cubicle with a retractable lever on the front wall was employed as illustrated in FIG. 11. The back wall was concave with three food magazines, one in each corner and one in the centre. A light was present within each corner magazine. Magazine entries were recorded by microswitches attached to panels covering the entrances. The entire apparatus was computer-controlled.
Rats are trained to press the lever when it is presented. […] The rat will find a reward (a 45 mg food pellet) respectively in the left, right or centre magazine tray.
A cohort of rats were trained on the attentional task (light stimulus duration 1.0 s). When performance was stable, they were divided into three matched groups, each with seven or more rats. Under deep anaesthesia, each rat was placed in a stereotaxic frame, with the incisor bar set at −3 mm to give a level head. Bilateral-injections, each of 2 μl, were made into the NBM area (see FIG. 13). The control group of rats received injections of water. […]

[6] = tested on: choline acetyltransferase; experiment: Cortical choline acetyltransferase (ChAT) level after NBM lesion; assay type: in vivo, rat; details: bilateral 2 μl of 16.5 mM into NBM
Protocol: After a period of post-operative testing, the rats were terminally anaesthetised and perfused intracardially with ice cold saline. The brain was removed and a portion of cortex (including the frontal, parietal and temporal areas, but excluding visual and cingulate cortex) was removed from each hemisphere and frozen. The remaining brain was preserved in formalin and subsequently coronally sectioned and stained with cresyl violet. The position and extent of the lesions was then determined by microscopical examination.
The frozen cortical tissue was used to determine the effectiveness of the NBM lesion. Using the method of Fonnum (J. Neurochem. (1975) 24, 407-409), the levels of the acetylcholine synthesising enzyme, choline acetyltransferase, (ChAT) were measured.
Since a proportion of this enzyme is due to the cholinergic innervation from the NBM, a decrease of ChAT would corroborate visualisation of a lesion at the site of injection in the NBM itself.

[7] = tested on: medial septum/vertical limb of the diagonal band (S/DB); experiment: Delayed non-matching to sample (DNMS) T-maze task after injection into S/DB; assay type: in vivo, rat; details: 2 μl of 33 mM into S/DB
Description: Wistar rats (175-200 g) were received from the suppliers (Harlan UK) and acclimated to the laboratory for three weeks before being trained on a delayed non-matching to sample (DNMS) task on an elevated wooden T-maze. In this task they are mildly food deprived and receive food pellets with enhanced flavour and nutritional content as rewards.
The DNMS task capitalises on the rat's innate tendency to alternate which cross arm of the T-maze it runs along; this derives from its normal foraging behaviour, where returning to a place from which it has recently eaten all the food is unlikely to pay dividends.
Each rat is placed at the start of the stem of the T-maze and allowed to run to retrieve a food pellet at the end of one cross arm. Access to the other cross arm is blocked. This block is then removed and the rat returned to the start. Normal rats choose to go to the opposite arm to that recently visited on this free choice part of the trial. After being allowed to consume their reward (if a correct choice was made) they are returned to their home cage and their cagemate is then tested in the same way. Typically a squad of ten rats is run in a “round robin’ fashion, so up to fifteen minutes intervenes between one trial and the next. Normal rats excel at this task once initial training (chiefly to familiarise them with the new smells on the maze and the elevated position off the floor) is complete.
The rats in the present experiment were given forty trials on the T-maze, then divided into groups matched for performance (all were above 90% correct). They were returned to unlimited food for a few days before undergoing surgery under Avertin anaesthesia.
The experimental group (n=6 rats) received an injection of AChE peptide into the medial septum/vertical limb of the diagonal band (S/DB). Control rats (n=6 rats) received an equal amount of the vehicle, water, in the same way, while another group (n=5 rats) received an injection of the reference neurotoxin NMDA at an equivalent dose to that of AChE peptide (2 μl of 33 mM). […]

SMILES | post-operative weight loss and recovery [1] | histological appearance of the septal area [2] | tissue loss in the medial septal region ([2]; Example 3, Wistar rats injected as in Example 2) | lesion size relative to NMDA ([2]; S/DB region) | time for lesion to form after introduction into S/DB ([2]; S/DB region, time course by MRI) | neurotoxic effects in mice (mice) | extent of hippocampal damage (rat hippocampus) | mean units of damage (length of hippocampal cell layers destroyed) (rat hippocampus; Wistar rats, 0.5 μl of 2 mM in right hippocampus, P=0.008 vs control side) [units] | units of damage (length of hippocampal cell layers destroyed, microscope graticule units) (rat hippocampus; most symmetrically injected DA rat, 1 μl of 1 mM in right hippocampus) [units] | body weight after surgery [3] | locomotor activity (ANOVA, group effect) [4] | proportion of correct lever-light trials [5] | histological examination of hippocampal brain sections (rat hippocampus; DA rats, 1 μl of 1 mM into hippocampus) | cholinergic loss in the cortex as measured by HPLC ChAT level [6] [%] | T-maze performance in subsequent trials ([7]; after first block of ten trials) | T-maze performance with 45 second delay between sample and choice ([7]; delay about 45 s) | T-maze performance, twenty massed trials ([7]; massed trials)
CSCC[C@H](NC(=O)[C@H](Cc1ccc(O)cc1)NC(=O)[C@H](CO)NC(=O)[C@H](CO)NC(=O)[C@H](Cc1c[nH]c2ccccc12)NC(=O)[C@H](CCCNC(=N)N)NC(=O)[C@H](Cc1c[nH]cn1)NC(=O)[C@H](Cc1ccccc1)NC(=O)[C@H](CCC(=O)O)NC(=O)[C@H](C)N)C(=O)N[C@H](C(=O)N[C@@H](Cc1c[nH]cn1)C(=O)N[C@@H](Cc1c[nH]c2ccccc12)C(=O)N[C@@H](CCCCN)C(=O)O)C(C)C [AChE peptide, AEFHRWSSYMVHWK] (H-AEFHRWSSYMVHWK-OH) | statistically significantly slower than either controls or NMDA rats to recover their weight | striking damage | Significant tissue loss | an order of magnitude larger | less than an hour | Neurotoxic effects have also been observed | local hippocampal damage | 155.3 | 119 | Severe body weight loss | – | – | – | – | – | – | –
CN[C@H](CC(=O)O)C(=O)O [NMDA, N-methyl D-aspartic acid] | lost more weight than controls | only small effects | – | – | – | – | more widespread | – | – | – | not significantly different | didn't produce a significant reduction | small areas of neural damage | 12.1 | returned to control levels | non-significant decrease | little effect
